Like-named read-outs stand apart in the source and are kept apart here. Marks after values point to notes of the source that are not given here.
Legend:
human 5-HT4d [1] = molecular target: T1, human 5-HT4d (Homo sapiens, UniProt Q13639); assay: Agonist-induced cAMP elevation in human 5-HT4d transfected HEK293 cells, 96 well format; format: cell-based; settings: normalized to 1,000 nM serotonin; for % IA (intrinsic activity, % agonist effect) RT: RT incubation, plate format not marked
T1 construct: expressed in transfected cells; host or cells: HEK293
Procedure: Agonist-induced cAMP elevation in human 5-HT4d transfected HEK293 cells, 96 well format: Human 5-HT4(d) transfected HEK293 cells were established in-house. The cells were grown at 37° C. and 5% CO2 in DMEM supplemented with 10% FCS, 20 mM HEPES (pH 7.4), 200 μg/mL hygromycin B (Gibco), 100 units/mL penicillin and 100 μg/mL streptomycin. The cells were grown to 60-80% confluence. On the previous day before treatment with compounds, dialyzed FCS (Gibco) was substituted for normal and the cells were incubated overnight. […] The cells were harvested with PBS/1 mM EDTA, centrifuged and washed with PBS. At the beginning of the assay, cell pellet was resuspended in DMEM supplemented with 20 mM HEPES, 10 μM pargyline (Sigma) and 1 mM 3-isobutyl-1-methylxanthine (Sigma) at the concentration of 1.6×10^5 cells/mL and left for 15 min at RT or 37° C. […] After incubation for 15 min at RT or 37° C., 1% Triton X-100 was added to stop the reaction (25 μL/well) and the plates were left for 30 min at RT. Homogenous time-resolved fluorescence-based cAMP (Schering) detection was made according to the manufacturer's instruction. […] Data was analyzed based on the ratio of fluorescence intensity of each well at 620 nm and 665 nm followed by cAMP quantification using cAMP standard curve. Enhancement of cAMP production elicited by each compound was normalized to the amount of cAMP produced by 1,000 nM serotonin (Sigma). Intrinsic activity is reported in Table 1, below, as % agonist effect.

[2] = Brain Penetration Assay (plasma and brain drug levels by LC/MS/MS); settings: rat, 5 mg/kg subcutaneous; for Brain AUC / Plasma AUC: 0.5-4 h post-dose; for Brain:Plasma ratio: ratio of AUCs
Procedure: (§1) Blood samples were collected via cardiac puncture after euthanization with CO2 at 0.5, 1, 2, and 4 h post-dose. Samples were placed in EDTA tubes and kept on ice. Whole brain was collected via decapitation. Brain samples were immediately stored in dry ice. Blood samples were spun down to collect plasma. Plasma and brain samples were stored at −20° C. until analysis. LC/MS/MS was used to measure plasma and brain drug levels.

[3] = test system: THLE-2 (transformed human liver epithelial) cells; assay: THLE assay (cell viability by cellular ATP); format: cell-based; settings: read-out: THLE IC50
Procedure: THLE assay: The THLE assay is predictive of general cell health and measures cell depletion in a human cell line of hepatic origin. THLE-2 (transformed human liver epithelial) cells were obtained from ATCC(CRL-2706 or CRL-10149) and cultured according to ATCC's recommendation. Media consisted of basal medium (BEGM Bullet Kit, Lonza Cat #CC-3170), supplemented with 10% fetal bovine serum (Sigma Cat #F4135) and 2.5 ng/L hEFG (BD Biosciences Cat #356052) and 700 ng/L phosphoethanolamine (Sigma Cat #p-0503). Cells were cultured in T175 human fibronectin/collagen/bovine serum albumin coated flasks. For each experiment, cells were plated onto 384 well plates (custom order, BD Biosciences Cat #359298) at a cell density of 2.5×10^3/well in a total medium volume of 25 μL/well. Plates were incubated for 24 h at 37° C., 5% CO2. […]
Following the 72 h exposure to test compounds, cell viability in each well was determined by measuring the concentration of cellular ATP using the Lonza Vialight™ Plus Cell Proliferation/Cytoxicity Kit (Lonza cat: LT07-121) according to the manufacturer's protocol. The ATP concentration was determined by reading luminescence using a Wallac Envision plate reader (Perkin Elmer, Waltham, Mass., USA). Percent of viable cells relative to no-drug treated controls was determined for each well. […]

[4] = rat, in vivo
Procedure: as §1

[5] = human, 1 uM, pH 7.4
Procedure: (§2) Human Liver Microsome Stability Assay: Human liver microsomes (HLMs) are used in a metabolic stability assay to determine the NADPH-dependent in vitro apparent intrinsic metabolic clearance (CLint,app) of a drug (primarily mediated by P450 metabolism). In the HLM assay, test compounds are incubated with HLMs & an NADPH regenerating system in 100 mM potassium phosphate buffer (pH 7.4). The HLMs used in this assay are prepared as a pool from many individual donors. The concentration of HLMs and test compound are 0.71 mg protein/ml and 1 uM, respectively. The reaction is started by the addition of microsomes and buffer to compound. At 0, 5, 10, 20, 30, and 60 minutes, the sample is crashed with ACN/IS (3 times the incubation volume), spun at 4° C. and 3500 rpm for 10 minutes. A matrix and 60 minute w/o NADPH sample are also incubated for 60 minutes serving as negative and positive controls. The matrix sample contains buffer, microsomes, and NADPH (no compound); where as, the 60 minute w/o NADPH sample contains buffer, microsomes, and compound (no NADPH). After centrifugation, the supernatant is removed from the sample, combined with equal parts of water, and stored in the refrigerator until analysis. Drug levels are quantified by mass spectrometry. Clearance is frequently expressed as an extraction ratio (Er) which is calculated as hepatic clearance/hepatic blood flow (range 0-1).

in vivo = settings: male, Sprague-Dawley, rat, sc, 5 mg/kg
Procedure: as §1

[6] = Human Liver Microsome Stability Assay; settings: HLM 0.71 mg protein/ml, 1 uM compound, NADPH; hepatic clearance/hepatic blood flow (range 0-1)
Procedure: as §2

human 5-HT4d [7] = molecular target: T1, human 5-HT4d; assay: Agonist-induced cAMP elevation in human 5-HT4d transfected HEK293 cells, 384 well format; format: cell-based; settings: normalized to 1 uM serotonin
Procedure: The cells were grown to 60-80% confluence. […] Intrinsic activity is reported in Table 1, below, as % agonist effect.

T1 sequence (Q13639 1-360 isoform Q13639-3): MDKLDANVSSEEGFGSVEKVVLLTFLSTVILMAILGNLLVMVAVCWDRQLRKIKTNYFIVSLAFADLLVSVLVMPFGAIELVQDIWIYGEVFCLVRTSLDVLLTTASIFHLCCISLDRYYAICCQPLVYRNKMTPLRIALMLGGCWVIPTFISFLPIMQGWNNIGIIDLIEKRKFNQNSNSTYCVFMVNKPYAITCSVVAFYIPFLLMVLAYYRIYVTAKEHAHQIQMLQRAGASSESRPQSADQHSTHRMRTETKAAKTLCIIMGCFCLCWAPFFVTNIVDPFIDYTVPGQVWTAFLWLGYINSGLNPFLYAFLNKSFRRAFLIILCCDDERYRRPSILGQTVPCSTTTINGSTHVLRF

| Structure (SMILES) | % IA (intrinsic activity, % agonist effect) 37° C., 96-well format (human 5-HT4d [1]) | % IA (intrinsic activity, % agonist effect) RT (human 5-HT4d [1]) | Er (extraction ratio) [6] | other results |
| --- | --- | --- | --- | --- |
| O=C(O)C1(CN2CCC(COc3noc4cccc(OCC(F)(F)F)c34)CC2)CCOCC1 [B] | 103^a % | 56.3% |  | Brain AUC [2]: 160 ng·h/g; Plasma AUC [2]: 4090 ng·h/mL; Brain:Plasma ratio [2]: 0.039 |
| OC1(CN2CCC(COc3noc4cccc(O[C@@H]5CCOC5)c34)CC2)CCOCC1 [Compound X, (R)-4-((4-((4-(tetrahydrofuran-3-yloxy)benzo[d]isoxazol-3-yloxy)methyl)piperidin-1-yl)methyl)tetrahydro-2H-pyran-4-ol] |  |  |  | IC50 ([3]; Homo sapiens, THLE-2, 72 h): > 300 µM; Brain AUC ([4]; male, Sprague-Dawley, sc, 5 mg/kg): 1790 ng·h/g; brain penetration (in words) [4]: freely crosses the blood brain barrier; Er (extraction ratio) [5]: 0.62; AUC (in vivo): 1760 ng·h/mL |
| CC(C)COc1cccc2onc(OCC3CCN(CC4(C(=O)O)CCCC4)CC3)c12 [D] | 95.0^a % | 36.0% | 0.36 |  |
| CC(C)COc1cccc2onc(OCC3CCN(CC4(C(=O)O)CCOCC4)CC3)c12 [F] | 118^a % | 55.5% | 0.28 | Brain AUC [2]: 319 ng·h/g; Plasma AUC [2]: 2950 ng·h/mL; Brain:Plasma ratio [2]: 0.108 |
| O=C(O)C1(CN2CCC(COc3noc4cccc(OCC5(CO)CCCC5)c34)CC2)CCOCC1 [G] | 79.0^a % | 33.0% | <0.27 |  |
| OC1(COc2cccc3onc(OCC4CCN(CC5(O)CCOCC5)CC4)c23)CCCC1 [H] | 104% | 30.8% | 0.83 | % IA (intrinsic activity, % agonist effect) 37° C., 384-well format (human 5-HT4d [7]): 50% |
| CC(C)COc1cccc2onc(OCC3CCN(CC4(O)CCOCC4)CC3)c12 [J] |  | 39.1% | 0.78 | % IA (intrinsic activity, % agonist effect) 37° C., 384-well format (human 5-HT4d [7]): 55^b %; IC50 ([3]; 72 h exposure, concentration range 300-0.058 μM): 56 µM |

Reference: US20120041026A1, “(R)-4-((4-((4-(TETRAHYDROFURAN-3-YLOXY)BENZO[D]ISOXAZOL-3-YLOXY)METHYL)PIPERIDIN-1-YL)METHYL)TETRAHYDRO-2H-PYRAN-4-OL, A PARTIAL AGONIST OF 5-HT4 RECEPTORS” (Pfizer Inc., priority 2010, published 2012)
